Results as given in ChEMBL document CHEMBL1201862, “PubChem BioAssay data set” (2004).
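Step 1: Grow cells in 96-well plates. Step 2: Expose to compound for 48 hours at 5 concentrations. Step 3: Interpolate endpoints linearly; if unreached, use highest concentration. GI50: concentration for 50% inhibition of growth.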 Calls of active or inactive are those of the source. No stated cut-off is given here; in the data, active = GI50 up to about 1.1 µM and inactive = higher.

Experiments:
Test in all cases: NCI-60 cell line screen, 48 h
CCRF-CEM = system: CCRF-CEM
Malme-3M = system: Malme-3M
DU-145 = system: DU-145
NCI-H226 = system: NCI-H226
A498 = system: A498
SK-MEL-2 = system: SK-MEL-2
HOP-92 = system: HOP-92
NCI-H23 = system: NCI-H23
786-0 = system: 786-0
U-251 = system: U-251
UO-31 = system: UO-31
SF-268 = system: SF-268
MCF7 = system: MCF7
MDA-MB-231 = system: MDA-MB-231
TK-10 = system: TK-10
HOP-62 = system: HOP-62
MDA-N = system: MDA-N
MOLT-4 = system: MOLT-4
SR = system: SR

| SMILES | GI50 (CCRF-CEM) | GI50 (Malme-3M) | GI50 (DU-145) | GI50 (NCI-H226) | GI50 (A498) | GI50 (SK-MEL-2) | GI50 (HOP-92) | GI50 (NCI-H23) | GI50 (786-0) | GI50 (U-251) | GI50 (UO-31) | GI50 (SF-268) | GI50 (MCF7) | GI50 (MDA-MB-231) | GI50 (TK-10) | GI50 (HOP-62) | GI50 (MDA-N) | GI50 (MOLT-4) | GI50 (SR) |
| --- | --- | --- | --- | --- | --- | --- | --- | --- | --- | --- | --- | --- | --- | --- | --- | --- | --- | --- | --- |
| CN(CCc1ccccn1)c1ccc2c(c1)C(=O)c1ccccc1-2 | > 100 µM (inactive) | > 100 µM (inactive) | > 100 µM (inactive) | 40.6 µM (inactive) | 35.2 µM (inactive) | 28.5 µM (inactive) | 15.2 µM (inactive) | > 100 µM (inactive) | 41.3 µM (inactive) | 43.3 µM (inactive) | > 100 µM (inactive) | > 100 µM (inactive) | > 100 µM (inactive) | > 100 µM (inactive) | > 100 µM (inactive) | > 100 µM (inactive) | 64.9 µM (inactive) | – | – |
| CC(=O)/C(=C/NC(=S)c1cccnc1)C(=O)Nc1ccccc1C | > 100 µM (inactive) | – | > 100 µM (inactive) | > 100 µM (inactive) | > 100 µM (inactive) | > 100 µM (inactive) | > 100 µM (inactive) | > 100 µM (inactive) | > 100 µM (inactive) | 71.9 µM (inactive) | > 100 µM (inactive) | > 100 µM (inactive) | > 100 µM (inactive) | > 100 µM (inactive) | > 100 µM (inactive) | > 100 µM (inactive) | > 100 µM (inactive) | > 100 µM (inactive) | – |
| CCNC(=S)NNC(=O)c1ccccc1Nc1ccccc1C(=O)NNC(=S)NCC | > 100 µM (inactive) | > 100 µM (inactive) | > 100 µM (inactive) | > 100 µM (inactive) | – | > 100 µM (inactive) | > 100 µM (inactive) | > 100 µM (inactive) | > 100 µM (inactive) | > 100 µM (inactive) | > 100 µM (inactive) | – | > 100 µM (inactive) | > 100 µM (inactive) | > 100 µM (inactive) | > 100 µM (inactive) | > 100 µM (inactive) | > 100 µM (inactive) | > 100 µM (inactive) |
| O=C(O)/C=C/c1ccc(Oc2ccccc2C(=O)O)o1 | > 10 µM (inactive) | > 10 µM (inactive) | > 10 µM (inactive) | – | – | – | > 10 µM (inactive) | > 10 µM (inactive) | > 10 µM (inactive) | > 10 µM (inactive) | – | > 10 µM (inactive) | > 10 µM (inactive) | > 10 µM (inactive) | > 10 µM (inactive) | > 10 µM (inactive) | > 10 µM (inactive) | > 10 µM (inactive) | > 10 µM (inactive) |
| O=[N+]([O-])/C(C(Cl)=C(Cl)Cl)=C(/Nc1ccccc1)SCc1ccccc1 | 15 µM (inactive) | 16.4 µM (inactive) | 23.6 µM (inactive) | 21.2 µM (inactive) | 25.9 µM (inactive) | 19.4 µM (inactive) | 31 µM (inactive) | 20.1 µM (inactive) | 17.3 µM (inactive) | 20.1 µM (inactive) | 20.8 µM (inactive) | 20.5 µM (inactive) | – | 19.9 µM (inactive) | 29.8 µM (inactive) | 19.1 µM (inactive) | 16.7 µM (inactive) | 17 µM (inactive) | 22.3 µM (inactive) |
| CCCCCCCCCCCCCCCCOP(=O)(O)OCC(N)C(=O)O (stereo not given) | 22.8 µM (inactive) | 63.2 µM (inactive) | 87.3 µM (inactive) | 21 µM (inactive) | 19.8 µM (inactive) | 19.3 µM (inactive) | 19.5 µM (inactive) | 27 µM (inactive) | 21.5 µM (inactive) | 12.9 µM (inactive) | 12.9 µM (inactive) | 18.5 µM (inactive) | – | 24.7 µM (inactive) | 5.02 µM (inactive) | 25 µM (inactive) | 23.5 µM (inactive) | 11.5 µM (inactive) | 33 µM (inactive) |
| C[n+]1c2ccccc2n2c3ccccc3c(NCc3ccco3)c(C#N)c21 | – | 2.43 µM (inactive) | 3.09 µM (inactive) | 2.23 µM (inactive) | 6.08 µM (inactive) | 2 µM (inactive) | 5.94 µM (inactive) | 1.46 µM (inactive) | 1.51 µM (inactive) | 2 µM (inactive) | 1.22 µM (inactive) | 2.42 µM (inactive) | 0.575 µM (active) | 2.21 µM (inactive) | 1.52 µM (inactive) | 1.46 µM (inactive) | 1.96 µM (inactive) | 0.984 µM (active) | – |
| CC1(C)O[C@@H](CP(c2ccc3ccccc3c2)c2ccc3ccccc3c2)[C@H](CP(c2ccc3ccccc3c2)c2ccc3ccccc3c2)O1 | > 100 µM (inactive) | – | > 100 µM (inactive) | 72.6 µM (inactive) | – | > 100 µM (inactive) | – | > 100 µM (inactive) | > 100 µM (inactive) | > 100 µM (inactive) | > 100 µM (inactive) | > 100 µM (inactive) | 72.3 µM (inactive) | > 100 µM (inactive) | > 100 µM (inactive) | > 100 µM (inactive) | > 100 µM (inactive) | 78.9 µM (inactive) | 77.8 µM (inactive) |
